Assay results published in patent publication US20070244190A1, “Neobritannilactone B and acetyl neobritannilactone B” (priority 2006, published 2007).
Read-outs that look alike come from different tables or passages of the source.

Key:
AGS cells [1] = assay: Cell viability, trypan blue exclusion, 24 h; type: cell-based; details: mean ± SE, n=3, read-out: IC50, growth of human cancer cells
Experimental: (§1) Cell Culture and Chemicals. The COLO 205 and HT 29 cell lines were isolated from human colon adenocarcinoma (ATCC CCL-222 and HTB-38); human promyelocytic leukemia (HL-60) cells were obtained from American Type Culture Collection (Rockville, Md.). The human AGS gastric carcinoma cell lines (CCRC 60102) were obtained from the Food Industry Research and Development Institute (Hsinchu, Taiwan). Cell lines were grown at 37° C. in 5% CO2 dioxide atmosphere in RPMI for COLO 205, HT-29, and HL-60 cells and DMEM/F12 for AGS cells, all supplemented with 10% heat-inactivated fetal bovine serum (GIBCO BRL, Grand Island, N.Y.) (100 units/mL of penicillin, 100 μg/mL of streptomycin), and 2 mM L-glutamine (GIBCO BRL). Selected compounds were dissolved in dimethyl sulfoxide (DMSO). Propidium iodide was obtained from Sigma Chemical Co. (St. Louis, Mo.).
(§2) Determination of Cell Viability. Human cancer cells were treated either with DMSO (0.01%) or the selected compounds (5-100 μM). Cell viability was determined at 24 h based on trypan blue exclusion assay. The viability percentage was calculated based on the percentage of unstained cells. Suspensions of cells were diluted 1:1 with 0.5% trypan blue solution. Stained and unstained cells were counted in a hemocytometer.

COLO 205 cells [2] = assay: Cell viability, trypan blue exclusion, 24 h; type: cell-based; details: COLO 205, 24 h, mean ± SE, n=3, read-out: IC50, growth of human cancer cells
Experimental: as §1, §2

HL-60 cells [3] = assay: Cell viability, trypan blue exclusion, 24 h; type: cell-based; details: HL-60, 24 h, mean ± SE, n=3, read-out: IC50, growth of human cancer cells
Experimental: as §1, §2

HT-29 cells [4] = assay: Cell viability, trypan blue exclusion, 24 h; type: cell-based; details: HT-29, 24 h, mean ± SE, n=3, read-out: IC50, growth of human cancer cells
Experimental: as §1, §2

AGS cells [5] = assay: Apoptosis (sub-G1) by flow cytometry; type: cell-based, human; details: 24 h, mean ± SE
Experimental: as §1
(§3) Flow Cytometry. Human cancer cells (2×10^5) were cultured in 60-mm Petri dishes and incubated for 24 h. The apoptotic cells (sub-G1) in the selected compounds and treated cells were measured by flow cytometry analysis. Then cells were harvested, washed with PBS, resuspended in 200 μL of PBS, and fixed in 800 μL of iced 100% ethanol at −20° C. After being left to stand overnight, the cell pellets were collected by centrifugation, resuspended in 1 mL of hypotonic buffer (0.5% Triton X-100 in PBS and 0.5 μg/mL RNase), and incubated at 37° C. for 30 min. Then 1 mL of propidium iodide solution (50 μg/mL) was added and the mixture was allowed to stand on ice for 30 min. Fluorescence emitted from the propidium iodide-DNA complex was quantitated after excitation of the fluorescent dye by FACScan cytometry (Becton Dickinson, San Jose, Calif.).
(§4) The compounds isolated from Inula were tested for their effects on the apoptotic ratio in human cancer cells.

COLO 205 cells [6] = assay: Apoptosis (sub-G1) by flow cytometry; type: cell-based, human; details: 24 h, mean ± SE
Experimental: as §1, §3, §4

HL-60 cells [7] = assay: Apoptosis (sub-G1) by flow cytometry; type: cell-based, human; details: 24 h, mean ± SE
Experimental: as §1, §3, §4

HT-29 cells [8] = assay: Apoptosis (sub-G1) by flow cytometry; type: cell-based, human; details: 24 h, mean ± SE
Experimental: as §1, §3, §4

Compound	apoptotic ratio (AGS cells [5]; 5 μM)	apoptotic ratio (AGS cells [5]; 10 μM)	apoptotic ratio (AGS cells [5]; 25 μM)	apoptotic ratio (AGS cells [5]; 50 μM)	apoptotic ratio (AGS cells [5]; 100 μM)	apoptotic ratio (COLO 205 cells [6]; COLO 205, 5 μM)	apoptotic ratio (COLO 205 cells [6]; COLO 205, 10 μM)	apoptotic ratio (COLO 205 cells [6]; COLO 205, 25 μM)	apoptotic ratio (COLO 205 cells [6]; COLO 205, 50 μM)	apoptotic ratio (COLO 205 cells [6]; COLO 205, 100 μM)	apoptotic ratio (HL-60 cells [7]; HL-60, 5 μM)	apoptotic ratio (HL-60 cells [7]; HL-60, 10 μM)	apoptotic ratio (HL-60 cells [7]; HL-60, 25 μM)	apoptotic ratio (HL-60 cells [7]; HL-60, 50 μM)	apoptotic ratio (HL-60 cells [7]; HL-60, 100 μM)	apoptotic ratio (HT-29 cells [8]; HT-29, 5 μM)	apoptotic ratio (HT-29 cells [8]; HT-29, 10 μM)	apoptotic ratio (HT-29 cells [8]; HT-29, 25 μM)	apoptotic ratio (HT-29 cells [8]; HT-29, 50 μM)	apoptotic ratio (HT-29 cells [8]; HT-29, 100 μM)	other results
C=C1C(=O)OC2CC(C)=C(C(C)CCCO)C(OC(=O)C(C)CC)C12 (stereo not drawn) [Compound 1, 6β-O-(2-methylbutyryl)-britannilactone]	10.89 ± 1.69%	11.38 ± 1.12%	17.76 ± 0.76%	28.48 ± 1.20%	27.10 ± 0.54%	5.33 ± 0.78%	5.86 ± 0.32%	15.20 ± 1.02%	27.21 ± 5.51%	36.24 ± 0.76%	6.41 ± 0.79%	5.36 ± 0.61%	10.53 ± 3.34%	28.60 ± 2.67%	27.05 ± 0.54%	4.24 ± 0.40%	3.68 ± 0.47%	3.93 ± 0.16%	5.16 ± 0.93%	6.40 ± 0.28%	IC50 (AGS cells [1]): 31.3 ± 1.8 µM; IC50 (COLO 205 cells [2]): 58.7 ± 1.32 µM; IC50 (HL-60 cells [3]): 47.1 ± 1.55 µM; IC50 (HT-29 cells [4]): 48.1 ± 2.26 µM
CC(=O)OCCC[C@H](C)C1=C[C@@H]2[C@H](C)C(=O)O[C@@H]2C[C@@]1(C)O [Compound 2, neobritannilactone A]	9.23 ± 0.22%	9.83 ± 2.27%	10.57 ± 2.11%	9.41 ± 2.83%	9.81 ± 2.30%	4.08 ± 0.21%	6.51 ± 2.28%	4.28 ± .93%	5.44 ± 0.47%	25.50 ± 3.46%	6.68 ± 1.51%	6.31 ± 0.98%	6.19 ± 0.01%	6.63 ± 2.21%	16.31 ± 1.63%	3.94 ± 1.05%	4.24 ± 0.24%	5.17 ± 1.70%	4.09 ± 0.77%	7.73 ± 3.22%	IC50 (AGS cells [1]): > 100 µM; IC50 (COLO 205 cells [2]): 97.9 ± 1.16 µM; IC50 (HL-60 cells [3]): 85.8 ± 4.97 µM; IC50 (HT-29 cells [4]): > 100 µM
C=C1C(=O)O[C@@H]2CC(C)=C([C@@H](C)CCCO)[C@H](O)[C@H]12 [Compound 5, britannilactone]	7.93 ± 1.71%	10.37 ± 0.98%	10.16 ± .28%	8.97 ± 0.66%	10.37 ± 0.66%	11.90 ± 3.61%	12.28 ± 5.24%	12.79 ± 1.84%	15.54 ± 2.14%	28.31 ± 1.89%	7.22 ± 1.54%	5.64 ± 2.00%	5.24 ± 0.67%	8.01 ± 1.34%	12.83 ± .06%	5.75 ± 1.77%	6.16 ± 1.23%	6.49 ± 1.07%	6.59 ± 0.54%	7.55 ± .08%	IC50 (AGS cells [1]; Homo sapiens): > 100 µM; IC50 (COLO 205 cells [2]; Homo sapiens): > 100 µM; IC50 (HL-60 cells [3]; Homo sapiens): > 100 µM; IC50 (HT-29 cells [4]; Homo sapiens): > 100 µM
C=C1C(=O)OC2CC(C)=C(C(C)CCCOC(C)=O)C(O)C12 (stereo not drawn) [Compound 6, 1-O-acetylbritannilactone]	15.37 ± 6.22%	17.28 ± 2.29%	14.66 ± 1.38%	14.84 ± .58%	18.85 ± .68%	13.44 ± .25%	11.32 ± .421%	16.48 ± 3.75%	16.59 ± 0.71%	35.79 ± 1.36%	4.05 ± 0.31%	7.26 ± 2.15%	4.37 ± 0.57%	5.69 ± 0.60%	22.19 ± 4.14%	5.36 ± 1.80%	6.81 ± 2.14%	11.68 ± 3.02%	9.26 ± 1.80%	14.87 ± .90%	IC50 (AGS cells [1]): > 100 µM; IC50 (COLO 205 cells [2]): > 100 µM; IC50 (HL-60 cells [3]): > 100 µM; IC50 (HT-29 cells [4]): 96 ± 12.5 µM
C=C1C(=O)OC2CC(C)=C(C(C)CCCOC(C)=O)C(OC(C)=O)C12 (stereo not drawn) [Compound 7, 1,6-O,O-diacetylbritannilactone]	7.49 ± .88%	5.79 ± 0.64%	11.29 ± 2.16%	10.79 ± 2.79%	8.12 ± .26%	6.94 ± .33%	8.69 ± 1.65%	26.95 ± 0.30%	15.44 ± .08%	17.82 ± 2.26%	6.14 ± .20%	8.67 ± 2.06%	21.13 ± 0.37%	27.02 ± 2.69%	22.24 ± 1.06%	11.19 ± 3.98%	11.15 ± 2.84%	11.50 ± .92%	13.08 ± 0.63%	20.88 ± .09%	IC50 (AGS cells [1]): 66.4 ± 6.29 µM; IC50 (COLO 205 cells [2]): 56.7 ± 3.66 µM; IC50 (HL-60 cells [3]): 35.3 ± 0.44 µM; IC50 (HT-29 cells [4]): 76.6 ± 5.5 µM
